The values below come from PMC7397174, “4-Arylthieno[2,3-b]pyridine-2-carboxamides Are a New Class of Antiplasmodial Agents” (Molecules, 2020).

Data set [1] relates to rHsGSK-3. The experiment in a line: KinaseGlo Plus assay for inhibition of HsGSK-3. The data set is classed as biochemical, human. Particulars: for rHsGSK-3 Activity at 10 µM [%]: remaining activity, calculated on DMSO controls, Table 4. How it is done:
A commercial luminescence-based kinase assay was used to investigate the enzymatic activity of kinases and to test potential kinase inhibitors. The KinaseGlo Plus assay (KinaseGlo Plus, Promega, Madison, WI, USA) provides a linear luminescence signal at ATP concentrations up to 100 μM and offers high signal stability. First, the kinase to be investigated and a corresponding substrate in the presence of ATP are used to perform the kinase reaction. During the substrate phosphorylation, ATP is consumed depending on the kinase activity. Subsequently, luminescence is generated by means of luciferase which is contained in the KinaseGlo Reagent. The intensity of the luminescence signal depends on the amount of ATP remaining in the reaction mixture. The luminescence […] to the enzymatic activity of the kinase. The following approach was used for the kinase reaction: rPfGSK-3 (see 3.4) or rHsGSK-3 (Promega, Madison, WI, USA) (20 ng), GS-1 substrate (Promega, Madison, WI, USA) (12 µg) and ATP (6 µg) (Ultra Pure, Promega, Madison, WI, USA) in 1× kinase reaction buffer (40 mM Tris-HCl pH 7.5, 20 mM MgCl2, 0.1 mg/mL BSA; final reaction volume 5 µL). The kinase reaction was performed for 30 min at 30 °C. The reaction mixture was then mixed with KinaseGlo Reagent (5 µL) and incubated for 10 min at room temperature. The mixture was transferred to a white 384-well plate (NUNC, ThermoFisher, Waltham, MA, USA) and the luminescence signal was measured in an EnVision Multilable Plate Reader (PerkinElmer, Waltham, MA, USA; integration time 0.5 sec/well). For the investigation, potential kinase inhibitors could be added directly to the kinase reaction. All kinase inhibitors were dissolved in DMSO. By appropriate pre-dilution of the inhibitors in kinase reaction buffer the final DMSO concentration in the kinase reaction was at most 1%. As negative control 1% DMSO without substance was measured. Since the luminescence signal is […] proportional to the ATP concentration, a control reaction (reaction without kinase) was measured simultaneously. The difference between kinase reaction and control reaction corresponds to the kinase activity. Using GraphPad Prism (version 6) the measured values were plotted and normalized to the DMSO control.

Data set [2] in a line: in vitro. The data set is classed as cell-based, human. The conditions noted are these: human, HEK293T Viability at 30 µM [%]. How it is done:
(§1) Cytotoxic effects of test compounds on eukaryotic cells were investigated using a HEK293T cell viability assay. First, the cell density of a HEK293T culture was determined. […] The supernatant was then aspirated and fresh culture medium was added to 200 μL into which the test compounds were previously added. All substances were previously dissolved in DMSO. […] The viability of the cells was then examined by adding PrestoBlue® Cell Viability Agent (Invitrogen, Carlsbad, CA, USA). The supernatant was removed, 10% PrestoBlue® was added in preheated PBS and the culture was incubated for 30 min at 37 °C. In cells with an active metabolism, the PrestoBlue dye is reduced, causing it to fluorescence. The fluorescence (λex = 560 nm, λem = 590 nm) was measured in an EnVision Multilable Plate Reader (Perkin Elmer, Waltham, MA, USA; integration time 0.1 sec/well).

Data set [3] deals with rPfGSK-3 (Plasmodium falciparum, UniProt O77344). The experiment in a line: KinaseGlo Plus assay for inhibition of PfGSK-3. Type of data set: biochemical. A general note: Kinase-Glo measures the ATP left after a reaction by luminescence.
Sequence of rPfGSK-3 (O77344 entry or part of it): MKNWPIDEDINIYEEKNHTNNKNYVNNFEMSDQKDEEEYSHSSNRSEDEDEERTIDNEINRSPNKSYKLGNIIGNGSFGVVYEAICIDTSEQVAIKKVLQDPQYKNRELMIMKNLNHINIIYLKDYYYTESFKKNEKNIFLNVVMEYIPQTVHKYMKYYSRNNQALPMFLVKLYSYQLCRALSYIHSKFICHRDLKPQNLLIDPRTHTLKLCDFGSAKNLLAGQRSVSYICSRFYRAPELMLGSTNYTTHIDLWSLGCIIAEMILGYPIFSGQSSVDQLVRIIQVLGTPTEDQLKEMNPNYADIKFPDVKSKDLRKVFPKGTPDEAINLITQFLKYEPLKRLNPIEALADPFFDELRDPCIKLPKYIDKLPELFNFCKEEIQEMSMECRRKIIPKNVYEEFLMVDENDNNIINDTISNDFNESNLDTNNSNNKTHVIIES
Data set [4] has as its system erythrocytic forms of P. falciparum (strain 3D7). The data set is described as follows: Viability screening of antiplasmodial activity (SYBR-gold DNA quantification, 96 h). Type of data set: cell-based, Plasmodium falciparum. The conditions noted are these: for activity at 0.3 µM / activity at 3 µM: 96 h; for activity at 0.3 µM: read-out: Parasitemia (3D7) at 0.3 µM [%]; for activity at 3 µM: read-out: Parasitemia (3D7) at 3 µM [%]; for SI (Selectivity index for 3D7 erythrocytic forms versus HEK293 cells): 3D7 versus HEK293 cells.

Data set [5] concerns HEK293T cells. The experiment in a line: in vitro. The data set is classed as cell-based, human. The conditions noted are these: 30 µM. The method, then:
as §1

Where [6] appears, read: 10 µM, remaining activity, calculated on DMSO controls, Table 3, read-out: rPfGSK-3 Activity at 10 µM [%].
[7] abbreviates: Plasmodium falciparum, 0.3 µM, strain 3D7, calculated on DMSO controls.
Where [8] appears, read: Plasmodium falciparum, 3 µM, strain 3D7, calculated on DMSO controls.
The mark [9] stands for this setting: Plasmodium falciparum, 3D7, strain 3D7, erythrocytic forms.
Setting [10] is: read-out: rPfGSK-3 Activity at 10 µM [%], 10 µM, remaining activity, calculated on DMSO controls, Table 3.

Where two headings read alike, the source gives them in different places.

In the case of `Cc1cccc(-c2c(C#N)c(N)nc3sc(C(=O)NCCN4CCOCC4)c(N)c23)c1` [Compound 9n, 3,6-Diamino-5-cyano-N-(2-morpholinoethyl)-4-(3-methylphenyl)thieno[2,3-b]pyridine-2-carboxamide], the “rHsGSK-3 Activity at 10 µM [%]” value in data set [1] is listed as 93.9 ± 3.2%. In data set [2], the viability at 48 h, 30 µM is 70.9 ± 23.6%. The remaining activity at 10 µM in data set [3] (setting [6]) was less than 40%. For the same compound, the activity at 0.3 µM in data set [4] (setting [7]) was 58.7 ± 25.9%. Further, the activity at 3 µM in data set [4] (setting [8]) is 91.6 ± 19.2%.

As for `Cc1cccc(-c2c(C#N)c(N)nc3sc(C(=O)NC4CC4)c(N)c23)c1` [Compound 9m, 3,6-Diamino-5-cyano-N-cyclopropyl-4-(3-methylphenyl)thieno[2,3-b]pyridine-2-carboxamide], in data set [1], the “rHsGSK-3 Activity at 10 µM [%]” value is reported as 93.8 ± 2.1%. Moreover, in data set [2], the viability at 48 h, 30 µM is 74.3 ± 31.1%. Also, the remaining activity at 10 µM in data set [3] (setting [6]) was less than 40%. Also, the activity at 0.3 µM in data set [4] (setting [7]) is 74.9 ± 15.7%. In data set [4] (setting [8]), the activity at 3 µM was 88 ± 18.2%.

In the case of `N#Cc1c(N)nc2sc(C(=O)Nc3ccc(Cl)cc3)c(N)c2c1-c1ccccc1Cl` [Compound 3], in data set [1], the “inhibition of human GSK-3 (in words)” value is recorded as “neither an inhibitor”. In addition, in data set [3], the “inhibition of plasmodial GSK-3 (in words)” value is given as “neither an inhibitor”. The half-maximal inhibitory concentration (IC50) was found to be 0.199 µM in data set [4] (setting [9]) and 0.199 µM in data set [4] (strain 3D7, erythrocytic forms).

Regarding `CNC(=O)c1sc2nc(N)c(C#N)c(-c3cccc(C)c3)c2c1N` [Compound 9j, 3,6-Diamino-5-cyano-N-methyl-4-(3-methylphenyl)thieno[2,3-b]pyridine-2-carboxamide], the “rHsGSK-3 Activity at 10 µM [%]” value in data set [1] is listed as 87.6 ± 7.4%. Also, in data set [2], the viability at 48 h, 30 µM amounted to 67.2 ± 21.5%. Further, the activity at 0.3 µM in data set [4] (setting [7]) is 74.6 ± 28.6%. Also, in data set [4] (setting [8]), the activity at 3 µM is 108 ± 24.2%.

For the compound `Nc1c(C(=O)Nc2ccc(F)cc2)sc2nc3c(c(-c4ccccc4)c12)CCC3` [Compound 17c, 3-Amino-N-(4-fluorophenyl)-4-phenyl-6,7-dihydro-5H-cyclopenta[b]thieno[3,2-e]pyridine-2-carboxamide], in data set [5] (human, 48 h), the “HEK293T Viability at 30 µM [%]” value amounted to 72.4 ± 23.4%. In data set [2], this compound displayed a viability at 48 h, 30 µM of 92.7 ± 11.7%. Besides, the remaining activity at 10 µM in data set [3] (setting [10]) was 103 ± 6.2%. The “SI (Selectivity index for 3D7 erythrocytic forms versus HEK293 cells)” value in data set [4] is greater than 100. This compound gave an IC50 in data set [4] (setting [9]) of 0.0716 µM. Moreover, the activity at 0.3 µM in data set [4] (setting [7]) was 23.6 ± 16.5%. Moreover, the activity at 3 µM in data set [4] (setting [8]) is 9.9 ± 17.1%. Further, the “IC50 (3D7) [nM]” value in data set [4] (strain 3D7, erythrocytic forms) is recorded as “two-digit nanomolar range”.

In the case of `Cc1cccc(-c2c3c(nc4sc(C(=O)Nc5ccc(Cl)cc5)c(N)c24)CCCC3)c1` [Compound 17e, 3-Amino-N-(4-chlorophenyl)-4-(3-methylphenyl)-5,6,7,8-tetrahydrothieno[2,3-b]quinoline-2-carbox-amide], in data set [5], the “HEK293T Viability at 30 µM [%]” value is on record as 57.9 ± 20.6%. For the same compound, the “rPfGSK-3 Activity at 10 µM [%]” value in data set [3] (10 µM, remaining activity, calculated on DMSO controls, Table 3) is given as 103.1 ± 10.7%. Besides, the “Parasitemia (3D7) at 0.3 µM [%]” value in data set [4] (0.3 µM, strain 3D7, calculated on DMSO controls) is 5.0 ± 11.6%. In addition, in data set [4] (3 µM, strain 3D7, calculated on DMSO controls), the “Parasitemia (3D7) at 3 µM [%]” value was 4.7 ± 13.5%.

On to `Nc1c(C(=O)Nc2ccc(Cl)cc2)sc2nc3c(c(-c4ccccc4)c12)CCC3` [Compound 17b, 3-Amino-N-(4-chlorophenyl)-4-phenyl-6,7-dihydro-5H-cyclopenta[b]thieno[3,2-e]pyridine-2-carboxamide], for which, in data set [5] (human, 48 h), the “HEK293T Viability at 30 µM [%]” value was 89.0 ± 15.8%. For the same compound, the viability at 48 h, 30 µM in data set [2] came out at 92.7 ± 11.7%. In data set [3] (setting [10]), the remaining activity at 10 µM is 104 ± 15.5%. Moreover, in data set [4], the “SI (Selectivity index for 3D7 erythrocytic forms versus HEK293 cells)” value was greater than 100. Besides, half-maximal inhibition in data set [4] (setting [9]) (IC50) required 0.193 µM. Also, the activity at 0.3 µM in data set [4] (setting [7]) was 7.2 ± 11.3%. Besides, in data set [4] (setting [8]), the activity at 3 µM is 7.7 ± 14.7%.

Compound `CN(CCNC(=O)OC(C)(C)C)c1ccc(-c2c(C#N)c(N)nc3sc(C(=O)Nc4ccc(Cl)cc4)c(N)c23)c(Cl)c1` [Compound 9y, tert-Butyl {2-[(3-chloro-4-{3,6-diamino-2-[(4-chlorophenyl)carbamoyl]-5-cyanothieno[2,3-b]pyridin-4-yl}phenyl)(methyl)amino]ethyl}carbamate] gave a viability at 48 h, 30 µM in data set [2] of 81.7 ± 19.6%. In addition, the remaining activity at 10 µM in data set [3] (setting [6]) is 110 ± 7.7%. The “SI (Selectivity index for 3D7 erythrocytic forms versus HEK293 cells)” value in data set [4] is recorded as greater than 40. In data set [4] (setting [9]), this compound yielded a concentration for half-maximal inhibition (IC50) of 0.699 µM. For the same compound, in data set [4] (setting [7]), the activity at 0.3 µM was 36.6 ± 27.4%. Besides, in data set [4] (setting [8]), the activity at 3 µM is 5.5 ± 4.6%.

One may read the viability as the share of living cells, or the viability signal relative to a control. By IC50 is commonly meant the midpoint of a concentration-inhibition curve.
